Data as given in patent publication US20230312685A1, “Bi-Peptide with Affinity to Extracellular Matrix Proteins or Cells and to Growth Factors for Tissue Healing and Regeneration” (Mayo Foundation for Medical Education and Research, priority 2019, published 2023).

Target: T1, collagen type 1 of the scaffold (CMI) (Bos taurus, UniProt P02453+P02465)
T1 construct: the CMI is build out of collagen type 1 from bovine origin (FDA approved implant); from tissue; host or cells: bovine-derived collagen, in the form of the commercial collagen meniscal implant (CMI) scaffold
Experiment: Immunofluorescence (IF) assay for PDGF-BB on the collagen meniscal implant (CMI)
Type: binding, bovine
Description: Pictures are merged z-stack files from confocal microscopy.
(1) Complete assay; (2) Blank assay; (3) Assay without peptide; (4) Assay without growth factor (PDGF); (5) Assay without primary antibody. Note: PDGF appears to bind well to collagen type 1 of the scaffold even without pre-incubation of the bi-peptide structure. Therefore the heparin-binding domain part of the peptide for PDGF can't be evaluated according to this assay.
FIG. 10 is an image of a Tile confocal scan of the CMI in the IF assay for PDGF-BB. The complete surface of the CMI was able to bind with recombinant PDGF.

T1 sequence (P02453 162-1217 limits assumed): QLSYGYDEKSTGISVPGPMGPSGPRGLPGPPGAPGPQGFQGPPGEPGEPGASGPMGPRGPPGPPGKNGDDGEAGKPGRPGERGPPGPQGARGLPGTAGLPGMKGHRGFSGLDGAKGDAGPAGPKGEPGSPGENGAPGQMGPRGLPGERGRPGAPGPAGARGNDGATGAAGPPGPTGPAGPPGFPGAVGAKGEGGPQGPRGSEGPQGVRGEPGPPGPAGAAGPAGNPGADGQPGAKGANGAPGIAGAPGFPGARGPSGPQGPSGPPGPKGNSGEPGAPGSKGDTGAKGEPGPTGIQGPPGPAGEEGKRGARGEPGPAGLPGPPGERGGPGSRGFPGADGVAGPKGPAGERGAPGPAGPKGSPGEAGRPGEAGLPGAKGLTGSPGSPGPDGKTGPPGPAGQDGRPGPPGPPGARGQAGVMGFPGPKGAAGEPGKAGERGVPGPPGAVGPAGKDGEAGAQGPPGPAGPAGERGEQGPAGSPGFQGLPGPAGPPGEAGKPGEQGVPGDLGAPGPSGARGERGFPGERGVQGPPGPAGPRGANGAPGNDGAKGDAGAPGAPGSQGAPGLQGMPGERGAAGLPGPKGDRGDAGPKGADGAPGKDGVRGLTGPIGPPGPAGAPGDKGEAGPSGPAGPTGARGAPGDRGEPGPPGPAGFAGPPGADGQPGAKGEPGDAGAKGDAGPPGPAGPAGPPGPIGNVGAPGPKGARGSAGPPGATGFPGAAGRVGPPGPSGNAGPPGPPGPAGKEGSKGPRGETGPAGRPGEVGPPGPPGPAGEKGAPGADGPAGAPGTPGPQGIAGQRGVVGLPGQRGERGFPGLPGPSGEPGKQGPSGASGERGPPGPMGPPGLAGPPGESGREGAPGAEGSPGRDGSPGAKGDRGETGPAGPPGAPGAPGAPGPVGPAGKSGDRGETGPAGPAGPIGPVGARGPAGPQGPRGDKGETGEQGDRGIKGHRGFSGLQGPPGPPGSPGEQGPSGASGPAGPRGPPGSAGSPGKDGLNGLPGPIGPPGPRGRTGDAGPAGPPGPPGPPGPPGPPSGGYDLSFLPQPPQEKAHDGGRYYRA
T1 sequence (P02465 80-1117 limits assumed): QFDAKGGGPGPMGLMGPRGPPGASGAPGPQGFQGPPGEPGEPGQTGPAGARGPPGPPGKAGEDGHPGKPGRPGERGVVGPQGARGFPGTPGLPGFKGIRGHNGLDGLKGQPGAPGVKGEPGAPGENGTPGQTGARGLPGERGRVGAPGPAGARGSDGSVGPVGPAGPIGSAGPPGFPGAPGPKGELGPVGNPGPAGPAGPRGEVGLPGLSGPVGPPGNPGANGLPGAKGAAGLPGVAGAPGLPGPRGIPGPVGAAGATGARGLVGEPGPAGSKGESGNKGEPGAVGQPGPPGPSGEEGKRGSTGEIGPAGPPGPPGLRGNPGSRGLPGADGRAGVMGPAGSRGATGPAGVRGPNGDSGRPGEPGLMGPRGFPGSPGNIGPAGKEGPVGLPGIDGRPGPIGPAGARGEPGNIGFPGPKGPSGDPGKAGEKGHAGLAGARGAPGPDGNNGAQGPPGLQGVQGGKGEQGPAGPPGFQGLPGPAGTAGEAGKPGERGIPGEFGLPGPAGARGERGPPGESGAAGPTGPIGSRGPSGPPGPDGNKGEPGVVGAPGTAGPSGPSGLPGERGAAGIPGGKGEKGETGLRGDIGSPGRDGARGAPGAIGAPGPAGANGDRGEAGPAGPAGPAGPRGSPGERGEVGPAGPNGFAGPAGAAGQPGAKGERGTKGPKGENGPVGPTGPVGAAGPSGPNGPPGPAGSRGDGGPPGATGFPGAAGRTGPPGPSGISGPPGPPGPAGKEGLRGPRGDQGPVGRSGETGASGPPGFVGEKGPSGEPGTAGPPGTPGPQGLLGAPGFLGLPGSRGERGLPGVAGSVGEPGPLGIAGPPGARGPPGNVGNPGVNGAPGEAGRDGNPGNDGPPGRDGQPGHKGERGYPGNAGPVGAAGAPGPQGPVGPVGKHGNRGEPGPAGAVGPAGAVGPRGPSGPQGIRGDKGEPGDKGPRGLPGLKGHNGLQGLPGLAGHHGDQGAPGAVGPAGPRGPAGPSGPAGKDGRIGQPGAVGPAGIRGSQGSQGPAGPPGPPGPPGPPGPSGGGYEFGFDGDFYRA

## PDGF
IF assay on CMI, without pre-incubation of the bi-peptide structure
  binding of PDGF to collagen type 1 of the scaffold: bind well
Tile confocal scan of the CMI, complete surface
  binding of recombinant PDGF to the CMI surface: able to bind
